From patent US20240216412A1, “OXIDIZED NICOTINAMIDE ADENINE DINUCLEOTIDE (NAD+) PRECURSOR TREATMENT FOR HEART FAILURE ALLEVIATION INDEPENDENT OF MITOCHONDRIAL PROTEIN DEACETYLATION” (University of Washington, priority 2022, published 2024)

How the values were obtained:
[1] = system: heart mRNA levels (Nppa, Ctgf, mtDNA encoded genes, PPARα/RXRα target genes); experiment: RT-PCR of heart transcripts and mitochondrial RNA junctions; format: in vivo, mouse; settings: ISO treated hearts, NR in the presence of GW6471
Description: RNA Extraction and Quantitative Real-Time Polymerase Chain Reaction (RT-PCR). Total RNA was isolated from frozen heart tissue using the RNeasy fibrous Kit (Qiagen). Total RNA was reverse-transcribed into first-strand cDNA using Iscript (Bio-rad) according to manufacturer's guidelines. Real Time PCR was performed using SYBR green (Bio-Rad). Results of mRNA levels were normalized to 18S rRNA levels and reported as fold-change over control.

[2] = system: cardiac mitochondria; experiment: Isolated cardiac mitochondria respiration (oxygen electrode); format: in vivo, mouse; settings: ISO treated mice, GW6471 in addition to NR
Description: Mitochondrial Isolation from cardiac tissue. Hearts were excised from mice, the aortas and atria were removed. Heart tissues were rinsed briefly in ice-cold mitochondria isolation medium (MIM) (70 mM sucrose, 220 mM mannitol, 5 mM MOPS, 1 mM EDTA, 0.025% fatty acid-free BSA, pH 7.4 with 5M KOH) to remove residual blood. Tissues were minced on ice and resuspended in fresh MIM, followed by trypsin digestion (10 ug/ml) and incubated on ice for 10 min. Trypsin digestion was stopped by the addition of trypsin inhibitor (0.5 mg/ml) and additional BSA (1 mg/ml) to MIM. The tissue pellets were resuspended in fresh MIM containing 1 mg/ml BSA, and transferred to a Teflon-glass tube and homogenized on ice with a Teflon pestle. The homogenates were centrifuged for 10 min at 800×g at 4° C. The supernatants were collected and centrifuged for 10 min at 8,000×g at 4° C. The supernatant was discarded and the mitochondrial pellets were resuspended in MIM to wash. The resuspension was centrifuged for 10 min at 8,000×g at 4° C., and the supernatant discarded. The mitochondrial pellet was resuspended to a concentrated volume for protein quantification by BCA Assay (Pierce).
Mitochondrial respirations. Isolated mitochondria respiration experiments were performed in an Clark type oxygen electrode Oxytherm System (Hansatech Instruments) at 30C. Briefly, freshly isolated mitochondria were added to respiration buffer (125 mM KCl, 20 mM HEPES, 3 mM MgCl2, 400 μM EGTA, 5 mM KH2PO4, 0.2% BSA (fatty acid free), pH 7.2) and placed in the respiration chamber to measure baseline respiration (State 1). The change in oxygen levels following the immediate addition of substrates (pyruvate/malate (5 mM/2 mM) or palmitoylcarnitine/malate (50 μM/2 mM) (State 2) followed by the sequential addition of 2.5 mM ADP (State 3), […] Oligomycin (State 4p) and 1 μM FCCP (FCCP Max). Antimycin A (2.5 μM) was added last to measure the residual oxygen consumption not accounted for by the electron transfer chain and it was subtracted from the previous measurements.

[3] = system: isoproterenol (ISO) induced heart failure in WT and Sirt3Ko mice; experiment: Isoproterenol (ISO) minipump induced heart failure, echocardiography and HW/TL; format: in vivo, mouse; settings: 14 days of ISO, NR plus GW6471 4.5 mg/kg/day
Description: Minipump implantation. Pathologic hypertrophy was induced by treating male (3-4 months old) Sirt3ko and WT mice with isoproterenol (ISO) or vehicle for 14 days. Mice with and without GW6471(4.5 mg/kg/day) were treated with NR (500 mg/kg body weight IP daily) or vehicle starting at day one after mini-pump insertion. Briefly, an incision was made in the skin between the shoulder blades. A deep subcutaneous pocket was made caudal to the incision using blunt dissection. The sterile minipump (Alzet #2002) was inserted into the pocket, and the incision was closed with wound clips. Isoproterenol (30 mg/kg/day) was delivered by osmotic minipump for 14 days. Minipumps carrying saline were used as a control.
Transthoracic Echocardiography. Echocardiography of hearts was performed at indicated time after surgery using the VEVO 2100 high-frequency, high-resolution digital imaging system (VisualSonics) equipped with a MS400 Microscan Transducer on anesthetized mice (0.5%-2% isoflurane in 95% oxygen). Measurements were made when heart rate was >450 bpm. Cardiac function and geometry measurements were measured in parasternal short axis view. M-mode images were used for analysis and calculated by the average of at least three cardiac cycles and carried out in a blind fashion. Hearts were harvested at 12-week post-surgery for subsequent experiments and biochemical assays.
Organ weight and histological assessment. Hearts from mice were harvested, rinsed briefly in 1×PBS, blotted dry, and weighed. Lungs from the same mice were harvested, weighed, then dried at 56 C. After 72 hours the lungs were weighed again. Heart weight (HW) and Lung weight (LW) was normalized to tibia length (TL) to assess changes in hypertrophic growth and lung edema, respectively. For histology, hearts were perfusion fixed with 10% neutral buffered formalin. Longitudinal sections of hearts were stained with Masson's Trichrome for assessment of fibrosis by the University of Washington Histology and Imaging Core.

[4] = system: RXRα; experiment: Chromatin immunoprecipitation (ChIP) of RXRα at the Acadm promoter PPRE; format: in vivo; settings: ISO mouse hearts, NR plus GW6471
Description: Chromatin immunoprecipitation (ChIP). The EZ ChIP kit (EMD Millipore catalog #17-371) was used according to the manufacturer's protocol. Briefly, heart tissue was cut into small pieces using a razor blade in a petri dish on ice. The cubed tissue was incubated in fixation solution (1% formaldehye) in a conical tube and rotated at room temperature for 15 minutes to crosslink proteins and chromatin. The reaction was stopped by adding 0.125M Glycine for 5 min at room temperature. The contents were homogenized with a hand-held tissue homogenizer for 45 seconds then pelleted by centrifugation for 3 minutes at 1,250×g at 4C. The supernatant was discarded and the pellet was resuspended in 10 ml ice-cold PBS wash buffer followed by centrifugation at 1,250×g for 3 minutes. This was wash step was repeated on ice. The supernatant was discarded and the pellet resuspended in 5 ml chromatin prep buffer and incubated on ice for 10 minutes. The resuspended pellet was homogenized on ice with a dounce homogenizer for 30 strokes and then contents transferred to new conical tube on ice. The suspension was centrifuged 3 minutes at 1,250×g at 4C then supernatant discarded. The pellet was resuspended in 1 ml Chip buffer and transferred to new centrifuge tube then incubated on ice for 10 minutes. […] Purified chromatin was analyzed on a 1% agarose gel to determine the shearing efficiency. […]

## CCC(=O)NC[C@H](Cc1ccc(OCCc2nc(-c3ccccc3)oc2C)cc1)N/C(C)=C\C(=O)c1ccc(C(F)(F)F)cc1 [GW6471]
[1]
  PPARα/RXRα target gene expression: failed to preserve
[2]
  Restoration by NR of PLC supported State 3 respiration: clearly blocked
[3]
  Protection by NR (FS %, cardiac hypertrophy): blocked
[4]
  NR-induced increase of RXRα binding occupancy at the Acadm PPRE: blocked
